Results from patent US20120225061A1, “TETRASUBSTITUTED CYCLOHEXYL COMPOUNDS AS KINASE INHIBITORS” (priority 2011, published 2012).
pEC50, pIC50: −log10 of the molar value. Like-named read-outs stand apart in the source and are kept apart here.

How the values were obtained:
Pim3 kinase [1] = molecular target: T1, Pim3 kinase (Homo sapiens, UniProt Q86V86); experiment: KinaseGlo Pim3 ATP depletion assay; assay type: biochemical; conditions: Table 4, 40 μM ATP, 100 μM BAD peptide
Protocol: (§1) The activity of PIM3 is measured using a luciferase-luciferin based ATP detection reagent to quantify ATP depletion resulting from kinase-catalyzed phosphoryl transfer to a peptide substrate. Compounds to be tested are dissolved in 100% DMSO and directly distributed into white 384-well plates at 0.5 μl per well. […] After 15 minutes, 10 μl of 80 μM ATP in assay buffer is added. Final assay concentrations are 5 nM PIM1, 40 μM ATP, 100 μM BAD peptide and 2.5% DMSO. The reaction is performed until approximately 50% of the ATP is depleted, then stopped by the addition of 20 μl KinaseGlo Plus (Promega Corporation) solution. The stopped reaction is incubated for 10 minutes and the remaining ATP detected via luminescence on the Victor2 (Perkin Elmer).

[2] = tested on: KMS11 (human myeloma cell line); experiment: Cell proliferation assay (CellTiter-Glo) in KMS11 cells; assay type: cell-based; conditions: KMS-11, 72 h, read-out: KMS11-luc EC50
Procedure, shortened: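 KMS11 cells at 2000 per well in IMDM/10% FBS were exposed to compound for 3 days. Viability was read by CellTiter-Glo luminescence.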

Pim2 kinase [3] = molecular target: T2, Pim2 kinase (Homo sapiens, UniProt Q9P1W9); experiment: KinaseGlo Pim2 ATP depletion assay; assay type: biochemical; conditions: Table 4, 5 nM PIM2, 4 μM ATP, 10 μM BAD peptide
T2 sequence (Q9P1W9 whole entry): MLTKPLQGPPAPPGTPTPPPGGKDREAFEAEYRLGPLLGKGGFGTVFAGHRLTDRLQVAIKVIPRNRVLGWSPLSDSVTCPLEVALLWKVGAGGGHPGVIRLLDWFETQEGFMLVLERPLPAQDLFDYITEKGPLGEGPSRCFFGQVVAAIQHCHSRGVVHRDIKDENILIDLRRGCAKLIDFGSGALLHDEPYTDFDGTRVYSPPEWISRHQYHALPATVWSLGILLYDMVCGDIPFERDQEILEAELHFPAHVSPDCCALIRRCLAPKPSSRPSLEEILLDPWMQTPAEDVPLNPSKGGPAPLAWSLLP
Protocol: as §1, with “of PIM2” for “of PIM3”, “of 8” for “of 80”, “nM PIM2, 4” for “nM PIM1, 40”, “ATP, 10” for “ATP, 100”, “stopped with” for “stopped by”

Pim1 kinase [4] = molecular target: T3, Pim1 kinase (Homo sapiens, UniProt P11309); experiment: KinaseGlo Pim1 ATP depletion assay; assay type: biochemical; conditions: Table 4, 2.5 nM PIM1, 20 μM ATP, 40 μM BAD peptide
T3 sequence (P11309 whole entry): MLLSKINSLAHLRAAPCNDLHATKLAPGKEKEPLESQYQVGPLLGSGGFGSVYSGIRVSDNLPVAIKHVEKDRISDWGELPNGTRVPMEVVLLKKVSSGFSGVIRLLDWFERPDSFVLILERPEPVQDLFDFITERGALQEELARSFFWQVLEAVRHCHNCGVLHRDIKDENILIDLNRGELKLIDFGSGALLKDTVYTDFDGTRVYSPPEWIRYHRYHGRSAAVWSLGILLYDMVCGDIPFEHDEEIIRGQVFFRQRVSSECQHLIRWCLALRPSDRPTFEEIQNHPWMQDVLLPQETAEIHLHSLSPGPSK
Protocol: as §1, with “PIM1” for “PIM3”, “40” for “80”, “Final assay concentrations are 5 nM PIM1, 40 μM ATP, 100 μM BAD peptide and 2.5% DMSO.” left out, “with” for “by”

Pim3 kinase [5] = molecular target: T1, Pim3 kinase; experiment: Pim3 AlphaScreen assay (high ATP)
Pim2 kinase [6] = molecular target: T2, Pim2 kinase; experiment: Pim2 AlphaScreen assay (high ATP)
Pim1 kinase [7] = molecular target: T3, Pim1 kinase; experiment: Pim1 AlphaScreen assay (high ATP)
Protocol: The activity of Pim 1, Pim 2, & Pim 3 is measured using a homogeneous bead based system quantifying the amount of phosphorylated peptide substrate resulting from kinase-catalyzed phosphoryl transfer to a peptide substrate. Compounds to be tested are dissolved in 100% DMSO and directly distributed to a white 384-well plate at 0.25 μl per well. […] This is followed by the addition of 5 μl/well of Pim 1, Pim 2 or Pim 3 kinase in assay buffer (concentrations described below). Final assay concentrations (described below) are in 2.5% DMSO. The reactions are performed for ˜2 hours, then stopped by the addition of 10 μl of 0.75 μg/ml anti-phospho Ser/Thr antibody (Cell Signaling), 10 μg/ml Protein A AlphaScreen beads (Perkin Elmer), and 10 μg/ml streptavidin coated AlphaScreen beads in stop/detection buffer (50 mM EDTA, 95 mM Tris, pH=7.5, 0.01% Tween-20). The stopped reactions are incubated overnight in the dark. The phosphorylated peptide is detected via an oxygen anion initiated chemiluminescence/fluorescence cascade using the Envision plate reader (Perkin Elmer).

Row | pIC50 (Pim3 kinase [1]) | pEC50 ([2]; Table 4, 3 days) | pIC50 (Pim2 kinase [3]) | pIC50 (Pim1 kinase [4]) | pIC50 (Pim3 kinase [5]) | pEC50 ([2]; Table 5, 3 days) | pIC50 (Pim2 kinase [6]) | pIC50 (Pim1 kinase [7]) | SMILES
1 | 8.59 | 5.22 | 8.47 | 9.40 |  |  |  |  | C[C@H]1C[C@@H](c2ccncc2NC(=O)c2cccc(-c3c(F)cccc3F)n2)C[C@@H](O)[C@]1(C)O [Example 58, 6-(2,6-difluorophenyl)-N-(4-((1R,3R,4R,5S)-3,4-dihydroxy-4,5-dimethylcyclohexyl)pyridin-3-yl) picolinamide]
2 | 8.60 |  | 8.31 | 8.89 |  |  |  |  | C[C@H]1C[C@@H](c2ccncc2NC(=O)c2nc(-c3ccccc3)cnc2N)C[C@@H](O)[C@]1(C)O [Example 37, 3-amino-N-(4-((1R,3R,4R,5S)-3,4-dihydroxy-4,5-dimethylcyclohexyl)pyridin-3-yl)-6-phenylpyrazine-2-carboxamide]
3 | 8.06 | 5.17 | 6.92 | 8.06 |  |  |  |  | Cc1c(-c2ccc(N)c(C(=O)Nc3cnccc3[C@H]3C[C@@H](O)[C@](C)(O)[C@@H](C)C3)n2)cnn1C [Example 143, 3-amino-N-(4-((1R,3R,4R,5S)-3,4-dihydroxy-4,5-dimethylcyclohexyl)pyridin-3-yl)-6-(1,5-dimethyl-1H-pyrazol-4-yl)picolinamide]
4 | 8.03 | ≤ 5.00 | 7.61 | 8.44 |  |  |  |  | C[C@H]1C[C@@H](c2ccncc2NC(=O)c2nc(Br)ccc2N)C[C@@H](O)[C@]1(C)O [Example 38, 3-amino-6-bromo-N-(4-((1R,3R,4R,5S)-3,4-dihydroxy-4,5-dimethylcyclohexyl)pyridin-3-yl) picolinamide]
5 | 8.35 | ≤ 5.00 | 7.59 | 8.33 |  |  |  |  | C[C@H]1C[C@@H](c2ccncc2NC(=O)c2ccnc(-c3c(F)cccc3F)n2)C[C@@H](O)[C@@]1(O)CO [Example 39, 2-(2,6-difluorophenyl)-N-(4-((1R,3R,4S,5S)-3,4-dihydroxy-4-(hydroxymethyl)-5-methylcyclohexyl)pyridin-3-yl) pyrimidine-4-carboxamide]
6 | 8.54 |  | 8.64 | 9.05 |  |  |  |  | CC[C@]1(O)[C@H](O)C[C@H](c2ccncc2NC(=O)c2ccc(F)c(-c3c(F)cccc3F)n2)C[C@@H]1C [Example 41, 6-(2,6-difluorophenyl)-N-(4-((1R,3R,4R,5S)-4-ethyl-3,4-dihydroxy-5-methylcyclohexyl)pyridin-3-yl)-5-fluoropicolinamide]
7 |  | ≤ 5.00 | 7.03 |  | 5.26 | < 5.00 | 4.66 | 6.67 | C[C@H]1C[C@@H](c2ccncc2NC(=O)c2ccc(F)c(-c3ccc(F)c(F)c3)n2)C[C@@H](O)[C@]1(C)O [Example 31, 6-(3,4-difluorophenyl)-N-(4-((1R,3R,4R,5S)-3,4-dihydroxy-4,5-dimethylcyclohexyl)pyridin-3-yl)-5-fluoropicolinamide]
8 |  | 5.15 | 6.79 |  | < 4.60 | 5.15 | < 4.60 | 5.60 | C[C@H]1C[C@@H](c2ccncc2NC(=O)c2nc(-c3cc(F)ccn3)ccc2N)C[C@@H](O)[C@]1(C)O [Example 132, 5-amino-N-(4-((1R,3R,4R,5S)-3,4-dihydroxy-4,5-dimethylcyclohexyl)pyridin-3-yl)-4′-fluoro-2,2′-bipyridine-6-carboxamide]
9 |  | ≤ 5.00 | 7.85 |  | 5.95 | < 5.00 | 5.25 | 7.47 | C[C@H]1C[C@@H](c2ccncc2NC(=O)c2nc(-c3cccc(F)n3)ccc2N)C[C@@H](O)[C@]1(C)O [Example 135, 5-amino-N-(4-((1R,3R,4R,5S)-3,4-dihydroxy-4,5-dimethylcyclohexyl)pyridin-3-yl)-6′-fluoro-2,2′-bipyridine-6-carboxamide]
10 | 6.51 |  | 5.27 | 6.28 |  |  |  |  | C[C@H]1C[C@@H](c2ccncc2NC(=O)c2cncc(-c3ccccc3)n2)C[C@@H](O)[C@]1(C)O [Example 36, N-(4-((1R,3R,4R,5S)-3,4-dihydroxy-4,5-dimethylcyclohexyl)pyridin-3-yl)-6-phenylpyrazine-2-carboxamide]
11 |  | 6.89 | 8.66 |  | 7.64 | 6.88 | 7.30 | 9.15 | C[C@H]1C[C@@H](c2ccncc2NC(=O)c2ccc(F)c(-c3c(F)cccc3F)n2)C[C@@H](O)[C@@]1(O)CF [Example 30, 6-(2,6-difluorophenyl)-5-fluoro-N-(4-((1R,3R,4R,5S)-4-(fluoromethyl)-3,4-dihydroxy-5-methylcyclohexyl)pyridin-3-yl) picolinamide]
12 |  | 5.05 | 8.06 |  | 6.42 | 5.05 | 5.67 | 8.01 | C[C@H]1C[C@@H](c2ccncc2NC(=O)c2nc(-c3ncccc3F)c(F)cc2N)C[C@@H](O)C1(C)O (stereo in doubt) [Example 130, 5-amino-N-(4-((1R,3R,4R,5S)-3,4-dihydroxy-4,5-dimethylcyclohexyl)pyridin-3-yl)-3,3′-difluoro-2,2′-bipyridine-6-carboxamide]
13 |  | 5.27 | 8.27 |  | 6.74 | 5.27 | 5.58 | 8.14 | CC(=O)c1ccc(F)c(-c2ccc(N)c(C(=O)Nc3cnccc3[C@H]3C[C@@H](O)[C@](C)(O)[C@@H](C)C3)n2)n1 [Example 133, 6′-acetyl-5-amino-N-(4-((1R,3R,4R,5S)-3,4-dihydroxy-4,5-dimethylcyclohexyl)pyridin-3-yl)-3′-fluoro-2,2′-bipyridine-6-carboxamide]
14 |  | ≤ 5.00 | 8.01 |  | 5.97 | < 5.00 | 5.64 | 7.54 | C[C@H]1C[C@@H](c2ccncc2NC(=O)c2nc(-c3nc(F)c(F)cc3F)ccc2N)C[C@@H](O)[C@]1(C)O [Example 128, 5-amino-N-(4-((1R,3R,4R,5S)-3,4-dihydroxy-4,5-dimethylcyclohexyl)pyridin-3-yl)-3′,5′,6′-trifluoro-2,2′-bipyridine-6-carboxamide]
15 |  | 5.86 | 7.70 |  | 6.21 | 5.86 | 5.04 | 7.92 | CCOc1cccc(-c2ccc(N)c(C(=O)Nc3cnccc3[C@H]3C[C@@H](O)[C@](C)(O)[C@@H](C)C3)n2)n1 [Example 127, 5-amino-N-(4-((1R,3R,4R,5S)-3,4-dihydroxy-4,5-dimethylcyclohexyl)pyridin-3-yl)-6′-ethoxy-2,2′-bipyridine-6-carboxamide]
16 |  | 5.49 | 7.83 |  | 6.70 | 5.49 | 6.37 | 8.17 | C[C@@H]1C[C@H](c2ccncc2NC(=O)c2ccc(F)c(-c3c(F)cccc3F)n2)C[C@H](O)[C@]1(O)CF [Example 29, 6-(2,6-difluorophenyl)-5-fluoro-N-(4-((1S,3S,4S,5R)-4-(fluoromethyl)-3,4-dihydroxy-5-methylyclohexyl)pyridin-3-yl) picolinamide]
17 |  | 5.48 | 7.70 |  | 5.77 | 5.48 | 5.09 | 7.24 | C[C@H]1C[C@@H](c2ccncc2NC(=O)c2nc(-c3ccc(F)c(F)c3)ccc2N)C[C@@H](O)[C@]1(C)O [Example 129, 3-amino-6-(3,4-difluorophenyl)-N-(4-((1R,3R,4R,5S)-3,4-dihydroxy-4,5-dimethylcyclohexyl)pyridin-3-yl)picolinamide]
